According to patent publication US20260174769A1, “MACROCYCLIC COMPOUNDS AND METHODS OF USE” (AMGEN INC., priority 2022, published 2026):
pIC50: −log10 of the molar value. Where a name gives a salt, the structure may show the parent alone.

Target: His-tagged KRAS G12D protein (Homo sapiens, UniProt P01116, G12D)
Test: KRAS G12D TR-FRET Assay
Format: binding
Conditions: TR-FRET binding
Method: The His-tagged KRAS G12D protein (Amgen) was diluted to 20 nM in Assay Buffer (20 mM HEPES, pH 7.4, 10 mM MgCl2, 50 mM NaCl, 0.1% BSA, 0.01% Tween-20, 10 μM GDP) and 2 μL was added to the appropriate wells of the 384-well plate. The plate was incubated for 30 minutes at room temperature. Biotinylated KRPep-2d substrate (Amgen) was diluted to 20 nM in Assay Buffer and 2 μL was added to all wells and incubated for 1 hour at room temperature. Detection Reagent (0.4 nM LANCE Eu-W1024 Anti-6×His (Perkin Elmer AD0401), 5 nM streptavidin-d2 (Cisbio 610SADLA)) was prepared in Assay Buffer, then 4 μL was added to the plate and incubated for 1 hour at room temperature.

Sequence of His-tagged KRAS G12D protein (P01116 1-188 isoform P01116-2 G12D): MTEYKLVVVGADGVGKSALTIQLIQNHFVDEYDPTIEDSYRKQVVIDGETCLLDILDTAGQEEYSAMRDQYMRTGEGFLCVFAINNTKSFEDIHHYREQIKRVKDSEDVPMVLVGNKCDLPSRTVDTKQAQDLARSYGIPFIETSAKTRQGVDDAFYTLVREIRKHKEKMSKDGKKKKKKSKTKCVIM

Row | SMILES | pIC50
1 | O=C1OC[C@H]2C[C@@H]2c2c(Cl)cc3[nH]ncc3c2-c2ncc3c(nc(OC[C@@]45CCCN4C[C@H](F)C5)nc3c2F)N2CCC[C@H](C2)O1 (racemic) [Example 113] | 8.00
2 | C[C@@]12CCCN(C1)c1nc(OC[C@@]34CCCN3C[C@H](F)C4)nc3c(F)c(ncc13)-c1cc(O)cc3c1[C@@H](CCCC(=O)N2)CCC3 (single isomer, unassigned) [Example 27, 2,2,2-trifluoroacetate salt] | 8.15
3 | C[C@@]12CCCN(C1)c1nc(OC[C@@]34CCCN3C[C@H](F)C4)nc3c(F)c(ncc13)-c1cc(O)cc3c1[C@H](CCCC(=O)N2)CCC3 (single isomer, unassigned) [Example 28, 2,2,2-trifluoroacetate salt] | 7.17
4 | Cc1cc2[nH]ncc2c2c1CCC[C@H](F)C(=O)N(C)[C@@H]1CCCN(C1)c1nc(OC[C@@]34CCCN3C[C@H](F)C4)nc3c(F)c-2ncc13 (single isomer, unassigned) [Example 51] | 8.00
5 | Cc1cc2[nH]ncc2c2c1CCC[C@@H](F)C(=O)N(C)[C@@H]1CCCN(C1)c1nc(OC[C@@]34CCCN3C[C@H](F)C4)nc3c(F)c-2ncc13 (single isomer, unassigned) [Example 52] | 7.72
6 | O=C1CCCCc2c(Cl)cc3[nH]ncc3c2-c2ncc3c(nc(OC[C@@]45CCCN4C[C@H](F)C5)nc3c2F)N2CC[C@@H]3CCN1[C@@H]3C2 (single isomer, unassigned) [Example 61] | 7.10
7 | O=C1CCCCc2c(Cl)cc3[nH]ncc3c2-c2ncc3c(nc(OC[C@@]45CCCN4C[C@H](F)C5)nc3c2F)N2CC[C@H]3CCN1[C@H]3C2 (single isomer, unassigned) [Example 62] | 8.52
8 | O=C1CCCc2c(F)ccc3cccc(c23)-c2ncc3c(nc(OC[C@@]45CCCN4C[C@H](F)C5)nc3c2F)N2CC[C@H]3CCN1[C@H]3C2 (single isomer, unassigned) [Example 72] | 8.52
9 | C[C@@]12CCCN(C1)c1nc(OC[C@@]34CCCN3C[C@H](F)C4)nc3c(F)c(ncc13)-c1cccc3ccc(F)c(c13)CCOC(=O)N2 (single isomer, unassigned) [Example 77] | 7.85
10 | C[C@]12CCCN(C1)c1nc(OC[C@@]34CCCN3C[C@H](F)C4)nc3c(F)c(ncc13)-c1cccc3ccc(F)c(c13)CCOC(=O)N2 (single isomer, unassigned) [Example 78] | 5.42
11 | O=C1OC/C=C/c2c(Cl)cc3[nH]ncc3c2-c2ncc3c(nc(OC[C@@]45CCCN4C[C@H](F)C5)nc3c2F)N2CCC[C@H](C2)O1 (single isomer, unassigned) [Example 116] | 7.77
12 | O=C1OC/C=C\c2c(Cl)cc3[nH]ncc3c2-c2ncc3c(nc(OC[C@@]45CCCN4C[C@H](F)C5)nc3c2F)N2CCC[C@H](C2)O1 (single isomer, unassigned) [Example 122] | 8.30
13 | Cc1cc2[nH]ncc2c2c1/C=C\COC(=O)O[C@@H]1CCCN(C1)c1nc(OC[C@@]34CCCN3C[C@H](F)C4)nc3c(F)c-2ncc13 (single isomer, unassigned) [Example 123] | 8.10
14 | Fc1c2ncc3c(nc(OC[C@@]45CCCN4C[C@H](F)C5)nc13)N1CCOC[C@H](COCCCCc3c(Cl)cc4[nH]ncc4c3-2)C1 (single isomer, unassigned) [Example 136] | 8.15
15 | Fc1c2ncc3c(nc(OC[C@@]45CCCN4C[C@H](F)C5)nc13)N1CCOC[C@@H](COCCCCc3c(Cl)cc4[nH]ncc4c3-2)C1 (single isomer, unassigned) [Example 137] | 8.40
16 | Cc1cc2[nH]ncc2c2c1CCCC(F)C(=O)N[C@@H]1CCCCN(C1)c1nc(OC[C@@]34CCCN3C[C@H](F)C4)nc3c(F)c-2ncc13 (single isomer, unassigned) [Example 159] | 8.22
17 | Cc1cc2[nH]ncc2c2c1CCCC(F)C(=O)N[C@@H]1CCCCN(C1)c1nc(OC[C@@]34CCCN3C[C@H](F)C4)nc3c(F)c-2ncc13 (single isomer, unassigned) [Example 160] | 8.40

Row | SMILES | pIC50
18 | O=C1CCCCc2c(Cl)cccc2-c2ncc3c(nc(OC[C@@]45CCCN4C[C@H](F)C5)nc3c2F)N2CC[C@H]3CCN1[C@H]3C2 (single isomer, unassigned) [Example 162] | 7.43
19 | O=C1CCCCc2c(Cl)cccc2-c2ncc3c(nc(OC[C@@]45CCCN4C[C@H](F)C5)nc3c2F)N2CC[C@@H]3CCN1[C@@H]3C2 (single isomer, unassigned) [Example 163] | 5.55
20 | C[C@]12CCCCN(C1)c1nc(OC[C@@]34CCCN3C[C@H](F)C4)nc3c(F)c(ncc13)-c1c(c(Cl)cc3[nH]ncc13)CCCCC(=O)N2 (single isomer, unassigned) [Example 165] | 4.90
21 | C[C@@]12CCCCN(C1)c1nc(OC[C@@]34CCCN3C[C@H](F)C4)nc3c(F)c(ncc13)-c1c(c(Cl)cc3[nH]ncc13)CCCCC(=O)N2 (single isomer, unassigned) [Example 166] | 8.30
22 | O=C1OCCCc2c(Cl)cc3[nH]ncc3c2-c2ncc3c(nc(OC[C@@]45CCCN4C[C@H](F)C5)nc3c2F)N2CC[C@@H]3CCN1[C@@H]3C2 (single isomer, unassigned) [Example 176] | 6.54
23 | O=C1OCCCc2c(Cl)cc3[nH]ncc3c2-c2ncc3c(nc(OC[C@@]45CCCN4C[C@H](F)C5)nc3c2F)N2CC[C@H]3CCN1[C@H]3C2 (single isomer, unassigned) [Example 177] | 8.52
24 | CN1CCC[C@H]1COc1nc2c3cnc(c(F)c3n1)-c1c(c(Cl)cc3[nH]ncc13)CCCOC(=O)O[C@@]1(C)COCCN2C1 (single isomer, unassigned) [Example 180] | 5.82
25 | CN1CCC[C@H]1COc1nc2c3cnc(c(F)c3n1)-c1c(c(Cl)cc3[nH]ncc13)CCCOC(=O)O[C@]1(C)COCCN2C1 (single isomer, unassigned) [Example 181] | 8.22
26 | Cc1cc2[nH]ncc2c2c1CCCOC(=O)O[C@@]1(C)COCCN(C1)c1nc(OC[C@@H]3CCCN3C)nc3c(F)c-2ncc13 (single isomer, unassigned) [Example 182] | 5.12
27 | Cc1cc2[nH]ncc2c2c1CCCOC(=O)O[C@]1(C)COCCN(C1)c1nc(OC[C@@H]3CCCN3C)nc3c(F)c-2ncc13 (single isomer, unassigned) [Example 183] | 8.10
28 | C[C@@H](Oc1nc2c3cnc(c(F)c3n1)-c1c(c(Cl)cc3[nH]ncc13)CCCOC(=O)O[C@@H]1COCCN2C1)[C@@H]1CCCN1C (single isomer, unassigned) [Example 203] | 7.77
29 | C[C@H](Oc1nc2c3cnc(c(F)c3n1)-c1c(c(Cl)cc3[nH]ncc13)CCCOC(=O)O[C@@H]1COCCN2C1)[C@@H]1CCCN1C (single isomer, unassigned) [Example 204] | 7.47
30 | Cc1cc2[nH]ncc2c2c1C[C@@H](C)COC(=O)O[C@@H]1CCCN(C1)c1nc(OC[C@@]34CCCN3C[C@H](F)C4)nc3c(F)c-2ncc13 (single isomer, unassigned) [Example 214] | 7.66
31 | Cc1cc2[nH]ncc2c2c1C[C@H](C)COC(=O)O[C@@H]1CCCN(C1)c1nc(OC[C@@]34CCCN3C[C@H](F)C4)nc3c(F)c-2ncc13 (single isomer, unassigned) [Example 215] | 7.82
32 | Fc1cc2[nH]ncc2c2c1CCCCOC[C@@H]1CCCCN(C1)c1nc(OC[C@@]34CCCN3C[C@H](F)C4)nc3c(F)c-2ncc13 (single isomer, unassigned) [Example 239] | 8.22
33 | Fc1cc2[nH]ncc2c2c1CCCCOC[C@H]1CCCCN(C1)c1nc(OC[C@@]34CCCN3C[C@H](F)C4)nc3c(F)c-2ncc13 (single isomer, unassigned) [Example 240] | 8.52
34 | Cc1cc2[nH]ncc2c2c1CCCCO[C@H](C)[C@H]1CN(CCO1)c1nc(OC[C@@]34CCCN3C[C@H](F)C4)nc3c(F)c-2ncc13 (single isomer, unassigned) [Example 241] | 5.89

Same assay, conditions: TR-FRET; read-out: KRAS G12D Binding IC50

Row | SMILES | pIC50
35 | CC12COCCN(C1)c1nc(OC[C@@]34CCCN3C[C@H](F)C4)nc3c(F)c(ncc13)-c1c(c(Cl)cc3[nH]ncc13)CCCc1nc2no1 (mixture of isomers) [Example 379, (1RS)-10-chloro-33-fluoro-24-(((2R,7a.S)-2-fluorotetrahydro-1H-pyrrolo[1,2-α]pyrrol-7a(5H)-yl)methoxy)-1-methyl-4,30-dioxa-3,13,14,19,23,25,27,34-octaazaheptacyclo[25.4.1.1~2,5~.1~18,22~.0~9,17~.0~12,16~.0~21,26~]tetratriaconta-2,5(34),9,11,14,16,18(33),19,21,23,25-undecaene] | 8.05
36 | Fc1c2ncc3c(nc(OC[C@@]45CCCN4C[C@H](F)C5)nc13)N1CCCCC(C1)c1noc(n1)CCCc1c(Cl)cc3[nH]ncc3c1-2 (mixture of isomers) [Example 382, (1RS)-10-chloro-33-fluoro-24-(((2R,7a.S)-2-fluorotetrahydro-1H-pyrrolo[1,2-α]pyrrol-7a(5H)-yl)methoxy)-4-oxa-3,13,14,19,23,25,27,34-octaazaheptacyclo[25.4.1.1~2,5~.1~18,22~.0~9,17~0~12,16~.0~21,26~]tetratriaconta-2,5(34),9,11,14,16,18(33),19,21,23,25-undecaene] | 8.30
37 | Fc1c2ncc3c(nc(OC[C@@]45CCCN4C[C@H](F)C5)nc13)N1CCC[C@H](C1)Cn1ncc(n1)[C@@H]1C[C@@H]1c1c(Cl)cc3[nH]ncc3c1-2 (relative stereo) [Example 383, (11R,13S,19R)-rel-9-chloro-32-fluoro-26-(((2.R.7aS)-2-fluorotetrahydro-1H-pyrrolo[1,2-α]pyrrol-7a(5H)-yl)methoxy)-5,6,16,17,23,25,27,31,34-nonaazaoctacyclo[26.3.1.1~14,17~1~19,23~.0~2,10~0~3,7~.0~11,13~.0~24,29~]tetratriaconta-1(32),2.4,7,9,14(34),15,24,26,28,30-undecaene] | 7.89
